In PubChem BioAssay (NCI):
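Five concentrations, 48 hours, 96-well plates. The concentration for full growth arrest is given as TGI.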

Experiments:
Experiment in all cases: NCI anticancer screen, dose series, 48 h
[1] = system: MCF7 breast
[2] = system: A498 renal
[3] = system: SNB-75 CNS
[4] = system: OVCAR-4 ovarian
[5] = system: SNB-19 CNS
[6] = system: K-562 leukemia
[7] = system: CAKI-1 renal
[8] = system: SF-268 CNS
[9] = system: SK-MEL-28 melanoma
[10] = system: HOP-62 NSCLC
[11] = system: UO-31 renal
[12] = system: 786-0 renal
[13] = system: OVCAR-3 ovarian
[14] = system: HT29 colon
[15] = system: ACHN renal
[16] = system: HS 578T breast
[17] = system: RPMI-8226 leukemia
[18] = system: EKVX NSCLC
[19] = system: OVCAR-5 ovarian
[20] = system: SR leukemia
[21] = system: OVCAR-8 ovarian
[22] = system: HCT-15 colon
[23] = system: MDA-MB-435
[24] = system: SF-295 CNS
[25] = system: RXF 393 renal
[26] = system: NCI-H460 lung
[27] = system: SK-MEL-5 melanoma
[28] = system: SK-MEL-2 melanoma
[29] = system: COLO 205 colon
[30] = system: HCC-2998 colon
[31] = system: NCI-H226 lung
[32] = system: IGROV1 ovarian
[33] = system: PC-3 prostate
[34] = system: SF-539 CNS
[35] = system: DU-145 prostate
[36] = system: MALME-3M melanoma
[37] = system: SW-620 colon
[38] = system: A549 NSCLC
[39] = system: NCI-H522 lung
[40] = system: CCRF-CEM leukemia
[41] = system: NCI-H23 lung
[42] = system: MOLT-4 leukemia
[43] = system: MDA-MB-231 breast
[44] = system: UACC-257 melanoma
[45] = system: NCI/ADR-RES ovarian
[46] = system: HL-60(TB) leukemia
[47] = system: SN12C renal
[48] = system: M14 melanoma
[49] = system: T-47D breast
[50] = system: SK-OV-3 ovarian
[51] = system: HCT-116 colon
[52] = system: UACC-62 melanoma
[53] = system: U251 CNS

Measured: TGI

Cc1cc(N=C2C=C(Br)C(=O)C(Br)=C2)cc(CN(CC(=O)O)CC(=O)O)c1O
> 100 µM: [1] | [2] | [3] | [4] | [5] | [6] | [7] | [8] | [9] | [10] | [11] | [12] | [13] | [14] | [15] | [16] | [17] | [18] | [19] | [20] | [21] | [22] | [23] | [24] | [25] | [26] | [27] | [28] | [29] | [30] | [31] | [32] | [33] | [34] | [35] | [36] | [37] | [38] | [39] | [40] | [41] | [42] | [43] | [44] | [45] | [46] | [47] | [48] | [49] | [50] | [51] | [52] | [53]
